Laboratory results: the NIST ThermoML archive (doi:10.1016/j.jct.2011.08.008)
Numbers after ± are expanded uncertainties.

Experiment: xn = mol fraction of the nth substance listed
Details: 101 kPa, Liquid, Vibrating tube method

Compound: CCCCn1cc[n+](C)c1.[Cl-] [1-butyl-3-methylimidazolium chloride] + OCCO
- mass density (298.15 K, x1 = 0.0132): 1108.21 ± 0.53 kg/m3
- mass density (298.15 K, x1 = 0.0294): 1106.1 ± 0.54 kg/m3
- mass density (298.15 K, x1 = 0.0484): 1104.02 ± 0.54 kg/m3
- mass density (298.15 K, x1 = 0.1028): 1098.95 ± 0.55 kg/m3
- mass density (298.15 K, x1 = 0.2101): 1092.39 ± 0.58 kg/m3
- mass density (298.15 K, x1 = 0.3094): 1088.58 ± 0.61 kg/m3
- mass density (298.15 K, x1 = 0.4202): 1085.81 ± 0.66 kg/m3
- mass density (298.15 K, x1 = 0.4947): 1084.46 ± 0.69 kg/m3
- mass density (298.15 K, x1 = 0.5992): 1083.24 ± 0.75 kg/m3
- mass density (298.15 K, x1 = 0.7117): 1082.47 ± 0.81 kg/m3
- mass density (298.15 K, x1 = 0.8143): 1082.35 ± 0.88 kg/m3
- mass density (298.15 K, x1 = 0.9126): 1082.27 ± 0.95 kg/m3
- mass density (298.15 K, x1 = 1): 1082.01 ± 1 kg/m3
- mass density (308.15 K, x1 = 0.0132): 1101.08 ± 0.53 kg/m3
- mass density (308.15 K, x1 = 0.0294): 1099.21 ± 0.53 kg/m3
- mass density (308.15 K, x1 = 0.0484): 1097.19 ± 0.53 kg/m3
- mass density (308.15 K, x1 = 0.1028): 1092.29 ± 0.54 kg/m3
- mass density (308.15 K, x1 = 0.2101): 1085.44 ± 0.57 kg/m3
- mass density (308.15 K, x1 = 0.3094): 1081.93 ± 0.6 kg/m3
- mass density (308.15 K, x1 = 0.4202): 1079.23 ± 0.65 kg/m3
- mass density (308.15 K, x1 = 0.4947): 1078.12 ± 0.68 kg/m3
- mass density (308.15 K, x1 = 0.5992): 1077.18 ± 0.74 kg/m3
- mass density (308.15 K, x1 = 0.7117): 1076.69 ± 0.8 kg/m3
- mass density (308.15 K, x1 = 0.8143): 1076.51 ± 0.87 kg/m3
- mass density (308.15 K, x1 = 0.9126): 1076.49 ± 0.94 kg/m3
- mass density (308.15 K, x1 = 1): 1076.51 ± 1 kg/m3
- mass density (318.15 K, x1 = 0.0132): 1093.97 ± 0.52 kg/m3
- mass density (318.15 K, x1 = 0.0294): 1092.21 ± 0.53 kg/m3
- mass density (318.15 K, x1 = 0.0484): 1090.29 ± 0.53 kg/m3
- mass density (318.15 K, x1 = 0.1028): 1085.61 ± 0.54 kg/m3
- mass density (318.15 K, x1 = 0.2101): 1079.22 ± 0.57 kg/m3
- mass density (318.15 K, x1 = 0.3094): 1075.58 ± 0.6 kg/m3
- mass density (318.15 K, x1 = 0.4202): 1072.98 ± 0.64 kg/m3
- mass density (318.15 K, x1 = 0.4947): 1072 ± 0.68 kg/m3
- mass density (318.15 K, x1 = 0.5992): 1071.11 ± 0.73 kg/m3
- mass density (318.15 K, x1 = 0.7117): 1070.76 ± 0.79 kg/m3
- mass density (318.15 K, x1 = 0.8143): 1070.75 ± 0.86 kg/m3
- mass density (318.15 K, x1 = 0.9126): 1070.88 ± 0.93 kg/m3
- mass density (318.15 K, x1 = 1): 1071.04 ± 1 kg/m3

Compound: CCCCCCCC[n+]1ccn(C)c1.[Cl-] [1-methyl-3-octylimidazolium chloride] + OCCO
- mass density (298.15 K, x1 = 0.0077): 1106.07 ± 0.54 kg/m3
- mass density (298.15 K, x1 = 0.0589): 1085.93 ± 0.53 kg/m3
- mass density (298.15 K, x1 = 0.119): 1068.7 ± 0.53 kg/m3
- mass density (298.15 K, x1 = 0.2112): 1050.79 ± 0.54 kg/m3
- mass density (298.15 K, x1 = 0.2985): 1039.53 ± 0.56 kg/m3
- mass density (298.15 K, x1 = 0.4021): 1030.4 ± 0.59 kg/m3
- mass density (298.15 K, x1 = 0.5118): 1023.63 ± 0.63 kg/m3
- mass density (298.15 K, x1 = 0.6041): 1019.49 ± 0.66 kg/m3
- mass density (298.15 K, x1 = 0.6999): 1016.21 ± 0.71 kg/m3
- mass density (298.15 K, x1 = 0.7837): 1013.92 ± 0.75 kg/m3
- mass density (298.15 K, x1 = 0.8328): 1012.75 ± 0.78 kg/m3
- mass density (298.15 K, x1 = 0.9583): 1010.27 ± 0.85 kg/m3
- mass density (298.15 K, x1 = 1): 1009.56 ± 0.88 kg/m3
- mass density (308.15 K, x1 = 0.0077): 1098.89 ± 0.53 kg/m3
- mass density (308.15 K, x1 = 0.0589): 1078.94 ± 0.53 kg/m3
- mass density (308.15 K, x1 = 0.119): 1061.98 ± 0.53 kg/m3
- mass density (308.15 K, x1 = 0.2112): 1044.34 ± 0.54 kg/m3
- mass density (308.15 K, x1 = 0.2985): 1033.27 ± 0.55 kg/m3
- mass density (308.15 K, x1 = 0.4021): 1024.26 ± 0.58 kg/m3
- mass density (308.15 K, x1 = 0.5118): 1017.52 ± 0.62 kg/m3
- mass density (308.15 K, x1 = 0.6041): 1013.41 ± 0.66 kg/m3
- mass density (308.15 K, x1 = 0.6999): 1010.14 ± 0.7 kg/m3
- mass density (308.15 K, x1 = 0.7837): 1007.87 ± 0.74 kg/m3
- mass density (308.15 K, x1 = 0.8328): 1006.75 ± 0.77 kg/m3
- mass density (308.15 K, x1 = 0.9583): 1004.34 ± 0.84 kg/m3
- mass density (308.15 K, x1 = 1): 1003.74 ± 0.87 kg/m3
- mass density (318.15 K, x1 = 0.0077): 1091.83 ± 0.53 kg/m3
- mass density (318.15 K, x1 = 0.0589): 1072.21 ± 0.52 kg/m3
- mass density (318.15 K, x1 = 0.119): 1055.33 ± 0.52 kg/m3
- mass density (318.15 K, x1 = 0.2112): 1037.95 ± 0.53 kg/m3
- mass density (318.15 K, x1 = 0.2985): 1026.92 ± 0.55 kg/m3
- mass density (318.15 K, x1 = 0.4021): 1017.91 ± 0.57 kg/m3
- mass density (318.15 K, x1 = 0.5118): 1011.2 ± 0.61 kg/m3
- mass density (318.15 K, x1 = 0.6041): 1007.18 ± 0.65 kg/m3
- mass density (318.15 K, x1 = 0.6999): 1003.94 ± 0.69 kg/m3
- mass density (318.15 K, x1 = 0.7837): 1001.74 ± 0.73 kg/m3
- mass density (318.15 K, x1 = 0.8328): 1000.65 ± 0.76 kg/m3
- mass density (318.15 K, x1 = 0.9583): 998.43 ± 0.83 kg/m3
- mass density (318.15 K, x1 = 1): 997.92 ± 0.86 kg/m3

Compound: CCCCn1cc[n+](C)c1.COS(=O)(=O)[O-] [1-butyl-3-methylimidazolium methyl sulfate] + OCCO
- mass density (298.15 K, x1 = 0.0052): 1110.66 ± 0.53 kg/m3
- mass density (298.15 K, x1 = 0.0512): 1119.06 ± 0.55 kg/m3
- mass density (298.15 K, x1 = 0.1106): 1128.96 ± 0.58 kg/m3
- mass density (298.15 K, x1 = 0.2135): 1145.36 ± 0.63 kg/m3
- mass density (298.15 K, x1 = 0.3018): 1156.55 ± 0.68 kg/m3
- mass density (298.15 K, x1 = 0.4059): 1167.63 ± 0.74 kg/m3
- mass density (298.15 K, x1 = 0.5066): 1176.9 ± 0.81 kg/m3
- mass density (298.15 K, x1 = 0.6163): 1185.67 ± 0.9 kg/m3
- mass density (298.15 K, x1 = 0.7): 1191.66 ± 0.97 kg/m3
- mass density (298.15 K, x1 = 0.8408): 1199.42 ± 1.1 kg/m3
- mass density (298.15 K, x1 = 0.9244): 1202.97 ± 1.2 kg/m3
- mass density (298.15 K, x1 = 1): 1205.84 ± 1.3 kg/m3
- mass density (308.15 K, x1 = 0.0052): 1103.5 ± 0.53 kg/m3
- mass density (308.15 K, x1 = 0.0512): 1111.91 ± 0.55 kg/m3
- mass density (308.15 K, x1 = 0.1106): 1121.84 ± 0.57 kg/m3
- mass density (308.15 K, x1 = 0.2135): 1138.27 ± 0.62 kg/m3
- mass density (308.15 K, x1 = 0.3018): 1149.5 ± 0.67 kg/m3
- mass density (308.15 K, x1 = 0.4059): 1160.69 ± 0.74 kg/m3
- mass density (308.15 K, x1 = 0.5066): 1170.01 ± 0.81 kg/m3
- mass density (308.15 K, x1 = 0.6163): 1178.75 ± 0.89 kg/m3
- mass density (308.15 K, x1 = 0.7): 1184.71 ± 0.96 kg/m3
- mass density (308.15 K, x1 = 0.8408): 1192.62 ± 1.1 kg/m3
- mass density (308.15 K, x1 = 0.9244): 1196.25 ± 1.2 kg/m3
- mass density (308.15 K, x1 = 1): 1199.25 ± 1.3 kg/m3
- mass density (318.15 K, x1 = 0.0052): 1096.12 ± 0.52 kg/m3
- mass density (318.15 K, x1 = 0.0512): 1104.2 ± 0.54 kg/m3
- mass density (318.15 K, x1 = 0.1106): 1114.04 ± 0.57 kg/m3
- mass density (318.15 K, x1 = 0.2135): 1130.75 ± 0.62 kg/m3
- mass density (318.15 K, x1 = 0.3018): 1142.35 ± 0.66 kg/m3
- mass density (318.15 K, x1 = 0.4059): 1153.59 ± 0.73 kg/m3
- mass density (318.15 K, x1 = 0.5066): 1162.97 ± 0.8 kg/m3
- mass density (318.15 K, x1 = 0.6163): 1171.77 ± 0.88 kg/m3
- mass density (318.15 K, x1 = 0.7): 1177.89 ± 0.95 kg/m3
- mass density (318.15 K, x1 = 0.8408): 1185.85 ± 1.1 kg/m3
- mass density (318.15 K, x1 = 0.9244): 1189.52 ± 1.2 kg/m3
- mass density (318.15 K, x1 = 1): 1192.7 ± 1.2 kg/m3
